This note sets out measurements from patent publication US7045145B1, “Transdermal contraceptive delivery system and process” (Agile Therapeutics, Inc., priority 1999, dated 2006).

The nature of the series: clinical. Particulars: female, human, in vivo.

Experimental: Serum level of levonorgestrel (LNG), ethinyl estradiol (EE) as well as luteinizing hormone (LH), progesterone (P) and estradiol (E2) were analyzed by radio-immunassay methods.
The total duration of study for each subject participating in this study is 5 months. It consists of one base-line period followed by three treatment periods and one recovery period. Each period is one menstrual cycle of the person subjects.
Subjects attending this 5 month-long study were randomly divided and sequentially admitted into three study groups. Group A, B and C subjects received one piece of 7.5 cm^2, 10.0 cm^2 and 12.5 cm^2 TCDS patch weekly, respectively, for three consecutive weeks I each of the three treatment periods. During the baseline and recovery periods, all the subjects received only the placebo patch of the corresponding size for three consecutive weeks. During the fourth week of each study period, no patch was worn by the subjects in any treatment groups.
According to the blood sampling schedule, a total of 57 blood samples (about 10 ml per sample) were taken from each subject during the 5-month study. During the three treatment cycles, 15 samples were taken through out the 21 days of patch wearing period. At the end of the third treatment cycle, 5 additional blood samples were taken during the 24 hours post patch removal which allows the elimination pharmacokinetics of drugs to be studied. […]

On to `C#C[C@]1(O)CC[C@H]2[C@@H]3CCC4=CC(=O)CC[C@@H]4[C@H]3CC[C@@]21CC` [levonorgestrel], for which the Cmax was > 2 ng/mL and the “serum levels compared with the level considered necessary for effective contraception in women” value is “exceeded the level (200–600 pg/ml)”.

What is called Cmax is the highest concentration seen after dosing.
